Results reported in ChEMBL document CHEMBL4725291, “Design, synthesis and biological evaluation of novel glyoxalase I inhibitors possessing diazenylbenzenesulfonamide moiety as potential anticancer agents” (Bioorg Med Chem, 2020).

Columns and labels:
Lactoylglutathione lyase [1] = target: T1, Lactoylglutathione lyase (Homo sapiens, UniProt Q04760); assay: Inhibition of recombinant human N-terminal Met and 6-His-tagged Glyoxalase-1 (Ala2 to Met184 residues) at 25 uM using glutathione and methylglyoxal as substrates preincubated for 15 mins followed by enzyme addition by double beam UV-vis spectrophotometric method relative to control
Target sequence in this assay (Q04760 2-184 limits assumed): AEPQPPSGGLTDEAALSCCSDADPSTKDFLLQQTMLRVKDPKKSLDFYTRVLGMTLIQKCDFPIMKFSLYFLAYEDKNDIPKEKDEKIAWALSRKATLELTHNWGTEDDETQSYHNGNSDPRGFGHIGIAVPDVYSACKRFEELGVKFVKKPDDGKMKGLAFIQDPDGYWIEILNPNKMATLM

Lactoylglutathione lyase [2] = target: T1, Lactoylglutathione lyase; assay: Inhibition of recombinant human N-terminal Met and 6-His-tagged Glyoxalase-1 (Ala2 to Met184 residues) using glutathione and methylglyoxal as substrates preincubated for 15 mins followed by enzyme addition by double beam UV-vis spectrophotometric method
Target sequence in this assay (Q04760 whole entry): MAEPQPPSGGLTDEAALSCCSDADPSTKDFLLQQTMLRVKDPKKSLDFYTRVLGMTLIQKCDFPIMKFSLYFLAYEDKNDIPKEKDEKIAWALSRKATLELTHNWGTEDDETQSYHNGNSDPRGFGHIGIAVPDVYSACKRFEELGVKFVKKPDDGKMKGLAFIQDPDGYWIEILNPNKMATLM

| Compound | inhibition (Lactoylglutathione lyase [1]) | IC50 (Lactoylglutathione lyase [2]) |
| --- | --- | --- |
| NS(=O)(=O)c1cccc(/N=N/c2c(O)ccc3ccccc23)c1 | 39% | 37.5 µM |
| NS(=O)(=O)c1cccc(/N=N/c2cc(C(=O)O)c(O)c3ccccc23)c1 | 96.5% | 1.22 µM |
| Nc1ccc(/N=N/c2cccc(S(N)(=O)=O)c2)c2ccccc12 | 28.1% | 85.8 µM |
| Cc1ccc(/N=N/c2cc3ccccc3c(C(=O)O)c2O)cc1S(N)(=O)=O | – | > 100 µM |
| Oc1ccc(/N=N/c2ccccc2)c2cccnc12 | 82.8% | 9.13 µM |
| Cc1ccc(/N=N/c2ccc(O)c(C(=O)O)c2)cc1S(N)(=O)=O | 67.7% | 11.5 µM |
| NS(=O)(=O)c1cccc(/N=N/c2ccc(O)c(C(=O)O)c2)c1 | 76.5% | 8.66 µM |
| NS(=O)(=O)c1cccc(/N=N/c2cc3ccc(=O)oc3cc2O)c1 | 64.4% | 18.9 µM |
| Cc1ccc(/N=N/c2cc3ccc(=O)oc3cc2O)cc1S(N)(=O)=O | 59% | 17.8 µM |
| O=C(O)c1ccc(/N=N/c2ccc(O)c3ncccc23)cc1 | 79.9% | 4.45 µM |
| NS(=O)(=O)c1cccc(/N=N/c2ccc(O)cc2)c1 | 59.9% | 13.4 µM |
| NS(=O)(=O)c1cccc(/N=N/c2ccc(O)c3ccccc23)c1 | 38.3% | 52.2 µM |
| O=C(O)c1cccc(/N=N/c2ccc(O)c3ncccc23)c1 | 90.7% | 4.37 µM |
| O=S(=O)(O)c1ccc(/N=N/c2ccc(O)c3ncccc23)cc1 | 75% | 9.7 µM |
| NS(=O)(=O)c1cccc(/N=N/c2ccc(O)c3ncccc23)c1 | 98.3% | 1.36 µM |
| Cc1ccc(/N=N/c2c(O)ccc3ccccc23)cc1S(N)(=O)=O | 34.5% | 45 µM |

The remaining lines, values ahead:

| inhibition (Lactoylglutathione lyase [1]) | IC50 (Lactoylglutathione lyase [2]) | Compound |
| --- | --- | --- |
| 66% | 21.8 µM | Nc1ccc(/N=N/c2cccc(S(N)(=O)=O)c2)c2ccc(O)cc12 |
| 76.4% | – | Cc1ccc(/N=N/c2ccc(N)c3ccc(O)cc23)cc1S(N)(=O)=O |
| 92.1% | 1.28 µM | Cc1ccc(/N=N/c2ccc(O)c3ncccc23)cc1S(N)(=O)=O |
| 54% | 24 µM | Cc1ccc(/N=N/c2c(O)ccc3cccc(N)c23)cc1S(N)(=O)=O |
| 57.2% | 18.9 µM | Cc1ccc(/N=N/c2ccc(N)c3cc(O)ccc23)cc1S(N)(=O)=O |
| 100% | 1.13 µM | Cc1ccc(/N=N/c2cc(C(=O)O)c(O)c3ccccc23)cc1S(N)(=O)=O |
| – | > 100 µM | Cc1ccc(/N=N/c2ccc(N)c3cccc(O)c23)cc1S(N)(=O)=O |
| 57.4% | 18.6 µM | Cc1ccc(/N=N/c2cc3ccccc3c(C=O)c2O)cc1S(N)(=O)=O |
| 24.7% | 95.7 µM | Cc1ccc(/N=N/c2ccc(N)c3ccccc23)cc1S(N)(=O)=O |
